Numbered stars: 1 amine (or outer) side, 2 acyl side, 3 side chain; on linkers, the order of the positions; unused ones are H or OH. Square brackets hold non-standard residues; d marks the D form. Side chains are listed from the residue outwards. Peptide text beside a SMILES is read from it. * marks the point of attachment. C20 diacid = O=C(O)CCCCCCCCCCCCCCCCCCC(=O)*; C18 diacid = O=C(O)CCCCCCCCCCCCCCCCC(=O)*; αMePhe(2-F) = C[C@](N)(Cc1ccccc1F)C(=O)O; γGlu = O=C(O)[C@H](CCC(=O)[*:2])N[*:1]; αMeY = C[C@](N)(Cc1ccc(O)cc1)C(=O)O; αMeF = C[C@](N)(Cc1ccccc1)C(=O)O; 4Pal = N[C@@H](Cc1ccncc1)C(=O)O; αMeL = CC(C)C[C@](C)(N)C(=O)O; Orn = NCCC[C@H](N)C(=O)O; AEEA = NCCOCCOCC(=O)O; Aib = CC(C)(N)C(=O)O
How the values were obtained:
human GLP-1R = human GLP-1R (Homo sapiens, UniProt P43220); experiment: [125I]-GLP-1 binding (SPA), human GLP-1 receptor; set-up: expressed in transfected cells; crude membranes; settings: read-out: hGLP1R Ki, (nM) (SEM, n)
Method in brief: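 Assay buffer: HEPES 25 mM, pH 7.4, CaCl2 2.5 mM, MgCl2 1 mM, with EDTA-free protease inhibitors. Receptor came from crude cell membranes prepared by homogenization and centrifugation at 4° C. IC50s came from four-parameter fits (maximum, minimum, IC50, Hill slope) and were expressed as Ki geometric means with SEM.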

human Gcg receptor = biological target: T1, human Gcg receptor (Homo sapiens, UniProt P47871); experiment: [125I]-Glucagon binding (SPA), human Gcg receptor; settings: read-out: hGLcgR Ki, nM (SEM, n)
T1 construct: expressed in transfected cells; crude membranes
Method in brief: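 Scintillation counts are taken after membranes and WGA beads incubate and settle for 12 hours at room temperature. Buffer is 25 mM HEPES, pH 7.4, with CaCl2, MgCl2, bacitracin and Tween-20. Ki values, from four-parameter IC50 fits, are geometric means over independent days.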

[1] = biological target: T2, gastric inhibitory peptide receptor (GIPR) (Homo sapiens, UniProt P48546); experiment: cAMP pharmacological functional assay in presence of casein, hGIPR; format: cell-based; settings: HEK293 cells expressing hGIPR, 0.1% Casein, geometric mean; read-out: hGIPR cAMP Rel EC50 nM (SEM, n)
T2 sequence (P48546 22-466): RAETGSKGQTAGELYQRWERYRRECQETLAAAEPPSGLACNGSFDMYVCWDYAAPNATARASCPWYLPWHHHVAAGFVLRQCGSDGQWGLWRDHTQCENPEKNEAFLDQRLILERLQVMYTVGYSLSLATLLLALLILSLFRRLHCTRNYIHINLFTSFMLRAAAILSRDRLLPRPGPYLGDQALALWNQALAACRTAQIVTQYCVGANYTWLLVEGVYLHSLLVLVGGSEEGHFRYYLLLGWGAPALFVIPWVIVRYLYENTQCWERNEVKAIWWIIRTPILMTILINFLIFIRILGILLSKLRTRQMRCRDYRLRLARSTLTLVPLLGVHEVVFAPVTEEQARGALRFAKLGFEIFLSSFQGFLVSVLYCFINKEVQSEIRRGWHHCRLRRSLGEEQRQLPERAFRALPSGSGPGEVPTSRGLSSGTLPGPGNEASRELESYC

[2] = biological target: human GLP-1 receptor (GLP-1R) (Homo sapiens, UniProt P43220); experiment: cAMP pharmacological functional assay in presence of casein, hGLP-1R; format: cell-based; settings: HEK293 cells expressing hGLP-1R, 0.1% Casein, geometric mean; read-out: hGLP1R cAMP Rel EC50 nM (SEM, n)
human GIP receptor = biological target: T3, human GIP receptor (Homo sapiens, UniProt P48546); experiment: [125I]-GIP binding (SPA), human GIP receptor; settings: read-out: hGIPR Ki, nM (SEM, n)
T3 construct: expressed in transfected cells; crude membranes
T3 sequence (P48546 22-466): T2 sequence (P48546 22-466)

T1 sequence (P47871 26-477): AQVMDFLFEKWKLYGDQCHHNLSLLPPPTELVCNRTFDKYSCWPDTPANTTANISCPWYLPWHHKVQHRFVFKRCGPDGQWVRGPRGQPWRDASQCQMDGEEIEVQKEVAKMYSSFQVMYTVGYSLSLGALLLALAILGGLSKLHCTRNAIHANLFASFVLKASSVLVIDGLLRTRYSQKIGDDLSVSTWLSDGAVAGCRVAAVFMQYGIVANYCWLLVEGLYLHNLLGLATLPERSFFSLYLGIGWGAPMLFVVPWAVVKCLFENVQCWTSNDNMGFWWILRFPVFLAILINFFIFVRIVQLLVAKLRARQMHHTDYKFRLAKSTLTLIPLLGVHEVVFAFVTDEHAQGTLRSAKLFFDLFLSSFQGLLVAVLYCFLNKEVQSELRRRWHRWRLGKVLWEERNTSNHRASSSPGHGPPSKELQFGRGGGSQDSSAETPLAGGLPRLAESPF
human GLP-1R, sequence (P43220 24-463): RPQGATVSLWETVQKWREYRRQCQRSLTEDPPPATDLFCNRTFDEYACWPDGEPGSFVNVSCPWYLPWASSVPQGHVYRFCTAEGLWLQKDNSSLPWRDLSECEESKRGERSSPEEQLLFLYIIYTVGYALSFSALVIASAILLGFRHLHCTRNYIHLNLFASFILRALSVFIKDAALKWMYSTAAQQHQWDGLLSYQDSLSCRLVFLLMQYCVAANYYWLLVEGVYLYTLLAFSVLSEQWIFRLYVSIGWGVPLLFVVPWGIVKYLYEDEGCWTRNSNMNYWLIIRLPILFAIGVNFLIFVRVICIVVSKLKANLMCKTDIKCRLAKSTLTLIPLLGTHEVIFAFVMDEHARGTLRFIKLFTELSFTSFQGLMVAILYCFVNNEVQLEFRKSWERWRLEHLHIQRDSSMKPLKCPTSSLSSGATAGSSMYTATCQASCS
human GLP-1 receptor (GLP-1R), sequence (P43220 24-463): as above

Work on `CC[C@H](C)[C@H](NC(=O)[C@H](CCCCN)NC(=O)[C@H](CC(=O)O)NC(=O)[C@H](CCCCNC(=O)COCCOCCNC(=O)COCCOCCNC(=O)CC[C@H](NC(=O)CCCCCCCCCCCCCCCCCCC(=O)O)C(=O)O)NC(=O)[C@H](CC(C)C)NC(=O)[C@@H](NC(=O)[C@H](CO)NC(=O)[C@H](Cc1ccc(O)cc1)NC(=O)[C@H](CC(=O)O)NC(=O)[C@H](CO)NC(=O)[C@@H](NC(=O)[C@](C)(Cc1ccccc1)NC(=O)[C@@H](NC(=O)CNC(=O)[C@H](CCC(=O)O)NC(=O)C(C)(C)NC(=O)[C@@H](N)Cc1ccc(O)cc1)[C@@H](C)O)[C@@H](C)O)[C@@H](C)CC)C(=O)N[C@@H](C)C(=O)N[C@@H](CCC(N)=O)C(=O)NC(C)(C)C(=O)N[C@@H](C)C(=O)N[C@@H](Cc1ccccc1)C(=O)N[C@H](C(=O)N[C@@H](CCC(=O)O)C(=O)N[C@@H](Cc1ccc(O)cc1)C(=O)N[C@@H](CC(C)C)C(=O)N[C@H](C(=O)N[C@@H](CCC(=O)O)C(=O)NCC(=O)NCC(N)=O)[C@@H](C)CC)[C@@H](C)CC` [Example 93] (H-Y[Aib]EGT[αMeF]TSDYSILK([AEEA-AEEA-γGlu-C20 diacid])DKIAQ[Aib]AFIEYLIEGG-NH2) yielded a Ki (human GLP-1R) of 1.89 nM, a Ki (human Gcg receptor) of 15.7 nM and an EC50 [1] of 0.185 nM. The EC50 [2] was 0.115 nM and the Ki (human GIP receptor) was 0.0859 nM.

Work on `CC[C@H](C)[C@H](NC(=O)[C@H](CC(C)C)NC(=O)[C@](C)(Cc1ccc(O)cc1)NC(=O)[C@@H](CCC(=O)O)NC(=O)[C@@H](NC(=O)[C@H](Cc1ccccc1)NC(=O)[C@@H](NC(=O)C(C)(C)NC(=O)[C@H](CCC(N)=O)NC(=O)[C@H](C)NC(=O)[C@H](CCCCNC(=O)COCCOCCNC(=O)COCCOCCNC(=O)CC[C@H](NC(=O)CCCCCCCCCCCCCCCCC(=O)O)C(=O)O)NC(=O)[C@H](CCCN)NC(=O)[C@H](CC(=O)O)NC(=O)[C@H](CC(C)C)NC(=O)[C@](C)(CC(C)C)NC(=O)[C@@H](NC(=O)[C@H](CO)NC(=O)[C@H](Cc1ccncc1)NC(=O)[C@H](CC(=O)O)NC(=O)[C@H](CO)NC(=O)[C@@H](NC(=O)[C@](C)(Cc1ccccc1F)NC(=O)[C@@H](NC(=O)CNC(=O)[C@H](CCC(=O)O)NC(=O)C(C)(C)NC(=O)[C@@H](N)Cc1ccc(O)cc1)[C@@H](C)O)[C@@H](C)O)[C@@H](C)CC)[C@@H](C)O)[C@@H](C)CC)C(=O)N[C@@H](CCC(=O)O)C(=O)NCC(=O)NCC(=O)N1CCC[C@H]1C(=O)N[C@@H](CO)C(=O)N[C@@H](CO)C(=O)NCC(=O)N[C@@H](C)C(=O)N1CCC[C@H]1C(=O)N1CCC[C@H]1C(=O)N1CCC[C@H]1C(=O)N[C@@H](CO)C(N)=O` [Example 239] (H-Y[Aib]EGT[αMePhe(2-F)]TSD[4Pal]SI[αMeL]LD[Orn]K([AEEA-AEEA-γGlu-C18 diacid])AQ[Aib]TFI[dE][αMeY]LIEGGPSSGAPPPS-NH2; N-terminus assumed) yielded a Ki (human GLP-1R) of 2.71 nM, a Ki (human Gcg receptor) of 596 nM and an EC50 [1] of 0.0353 nM. For the same molecule, the EC50 [2] was 0.0376 nM and the Ki (human GIP receptor) was 0.101 nM.

Molecule `CC[C@H](C)[C@H](NC(=O)[C@H](CC(C)C)NC(=O)C(C)(Cc1ccc(O)cc1)NC(=O)[C@@H](CCC(=O)O)NC(=O)[C@@H](NC(=O)[C@H](Cc1ccccc1)NC(=O)[C@H](CCC(=O)O)NC(=O)C(C)(C)NC(=O)[C@H](CCC(N)=O)NC(=O)[C@H](C)NC(=O)[C@H](CCCCNC(=O)COCCOCCNC(=O)COCCOCCNC(=O)CC[C@H](NC(=O)CCCCCCCCCCCCCCCCC(=O)O)C(=O)O)NC(=O)[C@H](CCCN)NC(=O)[C@H](CC(=O)O)NC(=O)[C@H](CC(C)C)NC(=O)C(C)(CC(C)C)NC(=O)[C@@H](NC(=O)[C@H](CO)NC(=O)[C@H](Cc1ccncc1)NC(=O)[C@H](CC(=O)O)NC(=O)[C@H](CO)NC(=O)[C@@H](NC(=O)C(C)(Cc1ccccc1F)NC(=O)[C@@H](NC(=O)CNC(=O)[C@H](CCC(=O)O)NC(=O)C(C)(C)NC(=O)[C@@H](N)Cc1ccc(O)cc1)[C@@H](C)O)[C@@H](C)O)[C@@H](C)CC)[C@@H](C)CC)C(=O)N[C@@H](CCC(=O)O)C(=O)NCC(=O)NCC(N)=O` (stereo partly drawn) [Example 265] has a Ki (human GLP-1R) of 0.537 nM, a Ki (human Gcg receptor) of 567 nM and an EC50 [1] of 0.0229 nM. It also gave an EC50 [2] of 0.0223 nM and a Ki (human GIP receptor) of 0.0224 nM.
